From patent publication US12473262B2, “Aryl hydrocarbon receptor activators” (Oregon State University, priority 2019, dated 2025)
Like-named read-outs stand apart in the source and are kept apart here.

Legend:
[1] = target: aryl hydrocarbon receptor (AhR) (Mus musculus (Mouse), UniProt P30561); experiment: AhR ligand screening: AhRE-luciferase reporter in transfected Hepa1 cells; assay type: cell-based; details: for Fold @ 1 nM: fold change of luciferase expression at 1 nM test compound relative to vehicle (0.1% DMSO); for Fold @ 100 nM: fold change of luciferase expression at 100 nM test compound relative to vehicle (0.1% DMSO); for Fold @ 10 uM: fold change of luciferase expression at 10 uM test compound relative to vehicle (0.1% DMSO); for Fold relative to benchmark @ 100 nM: luciferase expression at 100 nM test compound relative to 100 nM benchmark compound 11-cl-BBQ
Chain of aryl hydrocarbon receptor (AhR) (P30561 10-805): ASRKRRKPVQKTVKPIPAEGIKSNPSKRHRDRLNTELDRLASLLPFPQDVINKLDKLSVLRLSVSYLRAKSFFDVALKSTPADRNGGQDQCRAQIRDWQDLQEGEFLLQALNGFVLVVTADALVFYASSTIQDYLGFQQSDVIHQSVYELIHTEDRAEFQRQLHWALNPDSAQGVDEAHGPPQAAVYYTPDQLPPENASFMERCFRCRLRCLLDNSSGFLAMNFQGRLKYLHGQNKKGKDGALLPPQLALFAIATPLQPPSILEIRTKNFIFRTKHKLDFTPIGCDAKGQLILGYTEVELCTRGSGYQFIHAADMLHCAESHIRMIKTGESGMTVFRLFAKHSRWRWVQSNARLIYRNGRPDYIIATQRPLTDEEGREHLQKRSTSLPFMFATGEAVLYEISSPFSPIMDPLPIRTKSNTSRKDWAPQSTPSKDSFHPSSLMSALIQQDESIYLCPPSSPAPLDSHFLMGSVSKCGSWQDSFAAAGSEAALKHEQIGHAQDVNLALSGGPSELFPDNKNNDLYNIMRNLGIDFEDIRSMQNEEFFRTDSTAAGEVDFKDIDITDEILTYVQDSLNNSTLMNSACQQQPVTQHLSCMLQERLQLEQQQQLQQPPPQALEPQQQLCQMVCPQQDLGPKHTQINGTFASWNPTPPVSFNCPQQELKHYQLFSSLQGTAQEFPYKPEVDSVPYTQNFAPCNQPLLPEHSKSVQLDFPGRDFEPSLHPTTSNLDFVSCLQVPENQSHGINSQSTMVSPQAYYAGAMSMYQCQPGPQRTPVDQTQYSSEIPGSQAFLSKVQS
Chain of aryl hydrocarbon receptor (AhR) (P53762 whole entry partner): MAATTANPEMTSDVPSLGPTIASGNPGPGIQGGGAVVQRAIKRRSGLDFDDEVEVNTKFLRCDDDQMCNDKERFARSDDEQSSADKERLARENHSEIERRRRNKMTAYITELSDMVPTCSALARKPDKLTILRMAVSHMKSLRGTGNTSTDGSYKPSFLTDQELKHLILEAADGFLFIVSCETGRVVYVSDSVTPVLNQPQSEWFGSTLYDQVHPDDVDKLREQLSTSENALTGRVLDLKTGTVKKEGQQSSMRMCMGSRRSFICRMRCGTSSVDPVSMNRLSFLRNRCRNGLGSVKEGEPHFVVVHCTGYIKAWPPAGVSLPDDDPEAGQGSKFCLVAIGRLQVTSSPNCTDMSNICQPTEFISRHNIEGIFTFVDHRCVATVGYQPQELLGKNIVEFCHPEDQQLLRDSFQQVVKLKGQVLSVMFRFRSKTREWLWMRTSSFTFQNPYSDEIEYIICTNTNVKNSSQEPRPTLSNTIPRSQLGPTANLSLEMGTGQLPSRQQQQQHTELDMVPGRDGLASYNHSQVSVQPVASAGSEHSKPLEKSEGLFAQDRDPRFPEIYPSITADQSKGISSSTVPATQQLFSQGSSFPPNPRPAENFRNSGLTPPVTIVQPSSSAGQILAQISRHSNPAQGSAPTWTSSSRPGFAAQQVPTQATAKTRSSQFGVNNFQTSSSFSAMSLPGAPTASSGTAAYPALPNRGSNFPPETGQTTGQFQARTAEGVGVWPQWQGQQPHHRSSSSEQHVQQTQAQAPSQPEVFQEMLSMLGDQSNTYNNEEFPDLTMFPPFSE
How it was run: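 Values are fold luciferase induction relative to vehicle (0.1% DMSO), read by luminometry of lysates from Hepa1 cells carrying an AhRE-driven luciferase reporter. Cells were seeded at 1×10^4 per well, grown overnight and treated with compound before lysis.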

CYP-1A2 = CYP-1A2 (Homo sapiens (Human), UniProt P05177); experiment: CYP panel profile: P450 inhibition, CYP-1A2; assay type: in vitro ADME
Chain of CYP-1A2 (P05177 whole entry): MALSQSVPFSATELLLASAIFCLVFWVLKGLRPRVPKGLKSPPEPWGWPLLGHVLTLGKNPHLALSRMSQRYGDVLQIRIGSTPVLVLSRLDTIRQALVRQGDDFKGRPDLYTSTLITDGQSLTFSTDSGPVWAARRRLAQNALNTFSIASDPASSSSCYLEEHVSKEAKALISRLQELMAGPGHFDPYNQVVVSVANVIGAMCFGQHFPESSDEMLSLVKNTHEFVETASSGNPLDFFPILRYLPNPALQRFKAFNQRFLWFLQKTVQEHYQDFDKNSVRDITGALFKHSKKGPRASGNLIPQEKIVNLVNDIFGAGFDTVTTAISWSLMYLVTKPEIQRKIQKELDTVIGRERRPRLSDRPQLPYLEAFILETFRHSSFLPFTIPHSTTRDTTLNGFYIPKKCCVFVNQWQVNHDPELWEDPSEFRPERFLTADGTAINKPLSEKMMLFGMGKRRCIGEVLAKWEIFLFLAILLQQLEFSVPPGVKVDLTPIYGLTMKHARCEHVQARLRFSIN
Protocol: (§1) 5. CYP Panel Profile: P450 Inhibition
(§2) From 10 mM stock solutions of test compounds, a dilution plate was prepared diluting serially starting from 5 mM up to 2 μM in Acetonitrile/DMSO or Methanol/DMSO Human liver Microsomes were added at required concentration as per specific CYP isoform in a deep well assay plate (1A2, 2C9, 2D6, 2B6, 2C8, 2C19, and 3A4). Compounds were spiked in all wells from dilution plate at final concentrations starting from 50 μM up to 0.02 μM, except for positive and negative control. Specific substrate were added to all wells and reactions were pre-incubated for 10 min. To start reactions, NADPH was added to all wells at 1 mM final concentration. Assay plate was mixed by vortexing and incubated at 37° C. for […] for 3A4.20 min for (1A2, 2C9, 2B6, 2C8, 2D6) and […] for 2C19. A quencher with chilled acetonitrile suitable internal standard was added. Samples were centrifuged and supernatants were collected and subjected to LC-MS/MS analysis for determination.

CYP-2C9 = CYP-2C9 (Homo sapiens (Human), UniProt P11712); experiment: CYP panel profile: P450 inhibition, CYP-2C9; assay type: in vitro ADME; details: human liver microsomes
Chain of CYP-2C9 (P11712 whole entry): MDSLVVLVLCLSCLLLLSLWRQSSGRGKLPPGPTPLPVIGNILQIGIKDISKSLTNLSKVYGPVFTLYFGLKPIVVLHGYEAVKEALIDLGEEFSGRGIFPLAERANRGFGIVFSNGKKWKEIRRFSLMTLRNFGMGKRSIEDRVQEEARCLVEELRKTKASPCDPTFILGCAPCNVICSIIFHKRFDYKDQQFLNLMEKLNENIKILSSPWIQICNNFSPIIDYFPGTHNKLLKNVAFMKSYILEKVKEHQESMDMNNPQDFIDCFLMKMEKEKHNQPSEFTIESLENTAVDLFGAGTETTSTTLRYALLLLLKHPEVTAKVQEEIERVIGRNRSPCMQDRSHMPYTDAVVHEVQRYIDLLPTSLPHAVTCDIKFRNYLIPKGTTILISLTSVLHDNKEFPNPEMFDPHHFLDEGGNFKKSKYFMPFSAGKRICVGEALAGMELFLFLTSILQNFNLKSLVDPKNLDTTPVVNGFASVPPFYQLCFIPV
Protocol: as §1, §2

CYP-2D6 = CYP-2D6 (Homo sapiens (Human), UniProt P10635); experiment: CYP panel profile: P450 inhibition, CYP-2D6; assay type: in vitro ADME; details: human liver microsomes
Chain of CYP-2D6 (P10635 whole entry): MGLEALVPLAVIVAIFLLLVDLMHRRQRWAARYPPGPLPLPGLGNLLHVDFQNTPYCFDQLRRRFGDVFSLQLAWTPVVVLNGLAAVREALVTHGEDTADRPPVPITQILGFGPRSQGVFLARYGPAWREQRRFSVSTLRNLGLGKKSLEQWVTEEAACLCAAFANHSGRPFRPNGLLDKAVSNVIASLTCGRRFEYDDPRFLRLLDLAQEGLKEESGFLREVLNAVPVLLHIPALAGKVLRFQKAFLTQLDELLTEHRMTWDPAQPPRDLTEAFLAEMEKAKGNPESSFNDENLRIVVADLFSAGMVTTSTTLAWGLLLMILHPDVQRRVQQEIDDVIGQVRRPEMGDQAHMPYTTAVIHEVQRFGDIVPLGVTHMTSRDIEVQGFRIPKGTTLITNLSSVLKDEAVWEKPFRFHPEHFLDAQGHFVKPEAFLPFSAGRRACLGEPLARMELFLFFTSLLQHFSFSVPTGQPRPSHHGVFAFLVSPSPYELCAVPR
Protocol: as §1, §2

CYP-2B6 = CYP-2B6 (Homo sapiens (Human), UniProt P20813); experiment: CYP panel profile: P450 inhibition, CYP-2B6; assay type: in vitro ADME; details: human liver microsomes
Chain of CYP-2B6 (P20813 whole entry): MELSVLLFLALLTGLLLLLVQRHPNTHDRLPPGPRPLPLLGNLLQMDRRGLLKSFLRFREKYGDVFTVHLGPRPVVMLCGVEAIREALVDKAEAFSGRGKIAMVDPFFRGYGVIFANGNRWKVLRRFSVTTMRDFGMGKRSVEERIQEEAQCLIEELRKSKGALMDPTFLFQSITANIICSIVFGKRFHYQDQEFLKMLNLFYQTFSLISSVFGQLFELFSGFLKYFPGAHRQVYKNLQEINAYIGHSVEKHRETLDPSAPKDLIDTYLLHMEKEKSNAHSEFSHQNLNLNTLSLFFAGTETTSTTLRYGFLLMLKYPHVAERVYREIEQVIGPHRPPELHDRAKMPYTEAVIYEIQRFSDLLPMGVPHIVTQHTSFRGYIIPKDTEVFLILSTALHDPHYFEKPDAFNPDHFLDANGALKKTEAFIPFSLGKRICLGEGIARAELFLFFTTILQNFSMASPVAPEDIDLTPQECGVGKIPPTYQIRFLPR
Protocol: as §1, §2

CYP-2C8 = CYP-2C8 (Homo sapiens (Human), UniProt P10632); experiment: CYP panel profile: P450 inhibition, CYP-2C8; assay type: in vitro ADME; details: human liver microsomes
Chain of CYP-2C8 (P10632 whole entry): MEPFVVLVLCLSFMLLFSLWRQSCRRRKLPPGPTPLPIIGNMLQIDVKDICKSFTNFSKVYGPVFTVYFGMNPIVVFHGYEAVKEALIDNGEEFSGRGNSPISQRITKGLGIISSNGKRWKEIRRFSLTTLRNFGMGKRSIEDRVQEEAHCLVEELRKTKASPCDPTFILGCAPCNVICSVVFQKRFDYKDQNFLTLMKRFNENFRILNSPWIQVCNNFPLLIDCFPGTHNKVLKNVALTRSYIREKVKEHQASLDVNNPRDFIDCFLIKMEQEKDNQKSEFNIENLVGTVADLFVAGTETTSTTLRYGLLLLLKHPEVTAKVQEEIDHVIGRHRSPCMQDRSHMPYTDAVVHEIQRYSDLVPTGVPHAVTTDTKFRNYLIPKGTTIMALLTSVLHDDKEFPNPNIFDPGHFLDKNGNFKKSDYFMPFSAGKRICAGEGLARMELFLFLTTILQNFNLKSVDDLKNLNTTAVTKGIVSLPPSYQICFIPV
Protocol: as §1, §2

CYP-2C19 = CYP-2C19 (Homo sapiens (Human), UniProt P33261); experiment: CYP panel profile: P450 inhibition, CYP-2C19; assay type: in vitro ADME; details: human liver microsomes
Protocol: as §1, §2

CYP-3A4 = CYP-3A4 (Homo sapiens (Human), UniProt P08684); experiment: CYP panel profile: P450 inhibition, CYP-3A4; assay type: in vitro ADME; details: human liver microsomes
Chain of CYP-3A4 (P08684 whole entry): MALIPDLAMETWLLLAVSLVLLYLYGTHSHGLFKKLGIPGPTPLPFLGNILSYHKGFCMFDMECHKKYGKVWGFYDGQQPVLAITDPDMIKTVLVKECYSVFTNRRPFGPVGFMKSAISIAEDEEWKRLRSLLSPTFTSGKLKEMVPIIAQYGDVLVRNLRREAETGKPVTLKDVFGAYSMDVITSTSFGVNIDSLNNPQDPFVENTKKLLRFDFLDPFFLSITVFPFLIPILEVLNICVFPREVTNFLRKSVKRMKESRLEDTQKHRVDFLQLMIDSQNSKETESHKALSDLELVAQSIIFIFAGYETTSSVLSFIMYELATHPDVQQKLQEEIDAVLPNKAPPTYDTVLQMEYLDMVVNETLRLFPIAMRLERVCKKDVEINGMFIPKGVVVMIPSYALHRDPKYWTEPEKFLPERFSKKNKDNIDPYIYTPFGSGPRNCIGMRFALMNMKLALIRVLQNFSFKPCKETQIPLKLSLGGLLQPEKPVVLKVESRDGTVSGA
Protocol: as §1, §2

[2] = Liver microsomal stability, rat; details: for Rem @ RLM × 30 min: rat liver microsomes, 1 μM compound, 0.5 mg/ml protein; for half-life at 1 μM / microsomal CLint at 1 μM: rat, liver microsomes, pH 7.4
Protocol: (§3) The assessment of metabolic stability of testing compounds was performed using human, mouse, rat, dog and monkey liver microsomes (20 mg protein/ml). Each reaction mixture contained 42.5 μL of 0.1 M potassium phosphate buffer pH 7.4, containing respective LM protein (final concentration 0.5 mg/ml). 2.5 μL of the compound stock solution was added in it (1 μM final concentration). The reaction was initiated by the addition of 5 μL NADPH solution (final Concentration 1 mM). At different time points (0, 5, 15, and 30 minutes), samples were quenched with 200 μL of cold acetonitrile containing ISTD Propranolol. Samples were centrifuged at 3500 rpm for 20 mM at 4° C. Supernatant was subjected to LC-MS/MS analysis for quantification. Verapamil was used as a positive control.

[3] = Liver microsomal stability, human; details: for Rem @ HLM × 30 min: human liver microsomes, 1 μM compound, 0.5 mg/ml protein; for half-life at 1 μM / microsomal CLint at 1 μM: human, liver microsomes, pH 7.4
Protocol: as §3

[4] = Liver microsomal stability, mouse; details: for Rem @ MLM × 30 min: mouse liver microsomes, 1 μM compound, 0.5 mg/ml protein; for half-life at 1 μM / microsomal CLint at 1 μM: mouse, liver microsomes, pH 7.4
Protocol: as §3

[5] = human liver microsomes, read-out: CYP-1A2 IC50

SMILES	Fold @ 1 nM [1] [fold]	Fold @ 100 nM [1] [fold]	Fold @ 10 uM [1] [fold]	Fold relative to benchmark @ 100 nM [1] [fold]	IC50 (CYP-2C9) [µM]	IC50 (CYP-2D6) [µM]	IC50 (CYP-2B6) [µM]	IC50 (CYP-2C8) [µM]	IC50 (CYP-2C19) [µM]	IC50 (CYP-3A4) [µM]	Rem @ RLM × 30 min [2] [%]	half-life at 1 μM [2] [min]	microsomal CLint at 1 μM [2] [µL/min/mg]	Rem @ HLM × 30 min [3] [%]	half-life at 1 μM [3] [min]	microsomal CLint at 1 μM [3] [µL/min/mg]	Rem @ MLM × 30 min [4] [%]	half-life at 1 μM [4] [min]	microsomal CLint at 1 μM [4] [µL/min/mg]	IC50 (CYP-1A2; [5]) [µM]	other results
O=C(c1ccc(F)c(F)c1)n1c(-c2cccc3ccccc23)cc2cc(Cl)ccc21 [Compound 973]	1	1	1	0.02	> 50	> 50	> 50	> 50	23.1	> 50	46.3	26.5	52.3	34.2	16.7	83.1	58.7	39.9	34.8		IC50 (CYP-1A2): > 50 µM
O=C(c1ccc(F)c(F)c1)n1c(-c2ccc(-c3ccccc3)cc2)nc2ccc(Cl)cc21 [Compound 644]	1	1	2	0.11	2.7	8.2	> 50	1.7	> 50	> 50	36.8	28.7	48	69.8	77.9	18	71.7	70.5	20	4.7	
O=C(C1CC1)n1c(-c2cccc3ccccc23)cc2cc(Cl)ccc21 [Compound 972]	1	2	45	0.04	7	> 50	4.3	> 48.8	0.2	> 50	20.7	13.3	105	73.0	74.9	18.5	26.7	15.9	87.1	7	
O=C(c1ccccc1)n1c(-c2cccc3ccccc23)nc2cc(Cl)ccc21 [Compound 494]	1	29	43	0.94	4.2	> 50	> 45	2.5	5.2	1.2										0.7	
O=S(=O)(c1ccc(C(F)(F)F)cc1)n1c(-c2cccc3ccccc23)nc2ccc(Cl)cc21 [Compound 782]	1	23	19	0.92	> 50	> 50	> 50	> 50	6	0.4	31.8	17.8	78	66.4	50.5	27.4	14.9	10.9	127	47.9	
O=C(c1ccccc1)n1c(-c2cccc3ccccc23)nc2cc(OC(F)(F)F)ccc21 [Compound 703]	1	22	23	0.85	5.3	> 50	12	4.2	0.5	10.3										0.8	
COc1ccc(C(=O)n2c(-c3cccc4ccccc34)nc3cc(Cl)ccc32)cc1 [Compound 535, (5-chloro-2-(naphthalen-1-yl)-1H-benzo[d]imidazol-1-yl)(4-methoxyphenyl)methanone]	1	38	44	0.95	2.5	> 50	21.5	21.8	2.1	0.2										3.9	
O=C(c1ccc(F)cc1)n1c(-c2cccc3ccccc23)nc2ccc(Cl)cc21 [Compound 587]	2	16	19	1.07	5.3	26	11.6	3.2	6.7	6.3										0.4	
O=C(c1ccc(F)c(F)c1)n1c(-c2cccc3ccccc23)nc2cc(Cl)ccc21 [Compound 529]	2	41	52	1.03	3.5	> 50	9.6	9.6	3.6	1.2										0.6	
